Values after ≈ are worked out from the molar mass of the structure shown.
System: M tb H37Rv
Assay: MIC determination against M tb H37Rv (green fluorescent protein reporter assay; MIC-MABA)
Format: cell-based, Mycobacterium tuberculosis
Conditions: 7H9 broth, 10 days exposure, MIC = lowest concentration inhibiting fluorescence by 90%; for MIC: Mycobacterium tuberculosis, H37RV, 240 h, read-out: M. TB H37Rv: MIC-MABA: MIC, M. tb H37Rv

| SMILES | MIC | M. TB H37Rv: MIC-MABA: MIC (M. tb H37Rv) |
| --- | --- | --- |
| O=C(NC1CCCCCCC1)c1cc2c(F)ccnc2[nH]1 [MPL-027, N-cyclooctyl-4-fluoro-1H-pyrrolo[2,3-b]pyridine-2-carboxamide] | 0.61 µg/mL (≈ 2.11 µM) |  |
| Cc1ccnc2[nH]c(C(=O)NC3CCCCCCC3)cc12 [MPL-031, N-cyclooctyl-4-methyl-1H-pyrrolo[2,3-b]pyridine-2-carboxamide] | 0.25 µg/mL (≈ 0.876 µM) |  |
| O=C(NC1CCCCCCC1)c1cc2c(Cl)ccnc2[nH]1 [MPL-033, 4-chloro-N-cyclooctyl-1H-pyrrolo[2,3-b]pyridine-2-carboxamide] | 0.038 µg/mL (≈ 0.124 µM) |  |
| O=C(NC1CCCCCCC1)c1cc2c(Br)ccnc2[nH]1 [MPL-035, 4-bromo-N-cyclooctyl-1H-pyrrolo[2,3-b]pyridine-2-carboxamide] | 0.14 µg/mL (≈ 0.4 µM) |  |
| N#Cc1ccnc2[nH]c(C(=O)NC3CCCCCCC3)cc12 [MPL-036, 4-cyano-N-cyclooctyl-1H-pyrrolo[2,3-b]pyridine-2-carboxamide] | 0.08 µg/mL (≈ 0.27 µM) |  |
| O=C(NC1CCCCCCC1)c1cc2c(C(F)(F)F)ccnc2[nH]1 [MPL-037, N-cyclooctyl-4-(trifluoromethyl)-1H-pyrrolo[2,3-b]pyridine-2-carboxamide] | 0.014 µg/mL (≈ 0.0413 µM) |  |
| COc1ccnc2[nH]c(C(=O)NC3CCCCCCC3)cc12 [MPL-038, N-cyclooctyl-4-methoxy-1H-pyrrolo[2,3-b]pyridine-2-carboxamide] | 6.2 µg/mL (≈ 20.6 µM) |  |
| O=C(NC1CCCCCCC1)c1cc2c(C3CC3)ccnc2[nH]1 [MPL-039, N-cyclooctyl-4-cyclopropyl-1H-pyrrolo[2,3-b]pyridine-2-carboxamide] | 0.39 µg/mL (≈ 1.25 µM) |  |
| CNc1ccnc2[nH]c(C(=O)NC3CCCCCCC3)cc12 [MPL-040, N-cyclooctyl-4-(methylamino)-1H-pyrrolo[2,3-b]pyridine-2-carboxamide] | 6.2 µg/mL (≈ 20.6 µM) |  |
| Cc1cc(C)c2cc(C(=O)NC3CCCCCCC3)[nH]c2n1 [MPL-041, N-cyclooctyl-4,6-dimethyl-1H-pyrrolo[2,3-b]pyridine-2-carboxamide] | 8.5 µg/mL (≈ 28.4 µM) |  |
| Cc1cc(F)c2cc(C(=O)N[C@H]3C[C@H]4C[C@@H]([C@@H]3C)C4(C)C)[nH]c2n1 [MPL-043, 4-fluoro-6-methyl-N-[(1S,2S,3S,5R)-2,6,6-trimethylnorpinan-3-yl]-1H-pyrrolo[2,3-b]pyridine-2-carboxamide] | 0.14 µg/mL (≈ 0.425 µM) | 0.17 µg/mL |
| C[C@@H]1[C@@H](NC(=O)c2cc3c(F)c(F)cnc3[nH]2)C[C@H]2C[C@@H]1C2(C)C [MPL-062, 4,5-difluoro-N-[(1S,2S,3S,5R)-2,6,6-trimethylnorpinan-3-yl]-1H-pyrrolo[2,3-b]pyridine-2-carboxamide] | 0.19 µg/mL (≈ 0.57 µM) |  |
| CC1(C)CCC(NC(=O)c2cc3c(F)c(F)cnc3[nH]2)CC1 [MPL-063, N-(4,4-dimethylcyclohexyl)-4,5-difluoro-1H-pyrrolo[2,3-b]pyridine-2-carboxamide] | 0.14 µg/mL (≈ 0.456 µM) |  |
| C[C@@H]1[C@@H](NC(=O)c2cc3cc(Cl)c(F)nc3[nH]2)C[C@H]2C[C@@H]1C2(C)C [MPL-064, 5-chloro-6-fluoro-N-[(1S,2S,3S,5R)-2,6,6-trimethylnorpinan-3-yl]-1H-pyrrolo[2,3-b]pyridine-2-carboxamide] | 0.16 µg/mL (≈ 0.457 µM) |  |
| O=C(NC1CCCCCCC1)c1cc2cc(Cl)c(F)nc2[nH]1 [MPL-065a, 5-chloro-N-cyclooctyl-6-fluoro-1H-pyrrolo[2,3-b]pyridine-2-carboxamide] | 0.013 µg/mL (≈ 0.0401 µM) |  |
| Cc1nc2[nH]c(C(=O)N[C@H]3C[C@H]4C[C@@H]([C@@H]3C)C4(C)C)cc2c(F)c1F [MPL-066, 4,5-difluoro-6-methyl-N-[(1S,2S,3S,5R)-2,6,6-trimethylnorpinan-3-yl]-1H-pyrrolo[2,3-b]pyridine-2-carboxamide] | 0.012 µg/mL (≈ 0.0345 µM) |  |

| SMILES | MIC | M. TB H37Rv: MIC-MABA: MIC (M. tb H37Rv) |
| --- | --- | --- |
| Cc1nc2[nH]c(C(=O)N[C@H]3C[C@H]4C[C@@H]([C@@H]3C)C4(C)C)cc2c(F)c1Cl [MPL-068, 5-chloro-4-fluoro-6-methyl-N-[(1S,2S,3S,5R)-2,6,6-trimethylnorpinan-3-yl]-1H-pyrrolo[2,3-b]pyridine-2-carboxamide] | 0.046 µg/mL (≈ 0.126 µM) |  |
| Cc1nc2[nH]c(C(=O)NC3CCC(C)(C)CC3)cc2c(F)c1Cl [MPL-069, 5-chloro-N-(4,4-dimethylcyclohexyl)-4-fluoro-6-methyl-1H-pyrrolo[2,3-b]pyridine-2-carboxamide] | 0.0099 µg/mL (≈ 0.0293 µM) |  |
| Cc1cc2cc(C(=O)N[C@H]3C[C@H]4C[C@@H]([C@@H]3C)C4(C)C)[nH]c2nc1C [MPL-070, 5,6-dimethyl-N-((1S,2S,3S,5R)-2,6,6-trimethylbicyclo[3.1.1]heptan-3-yl)-1H-pyrrolo[2,3-b]pyridine-2-carboxamide] | 0.49 µg/mL (≈ 1.51 µM) |  |
| Cc1cc2cc(C(=O)NC3CCCCCCC3)[nH]c2nc1C [MPL-071, N-cyclooctyl-5,6-dimethyl-1H-pyrrolo[2,3-b]pyridine-2-carboxamide] | 0.049 µg/mL (≈ 0.164 µM) |  |
| C[C@@H]1[C@@H](NC(=O)c2cc3c(F)cncc3[nH]2)C[C@H]2C[C@@H]1C2(C)C [MPL-092, 4-fluoro-N-[(1S,2S,3S,5R)-2,6,6-trimethylnorpinan-3-yl]-1H-pyrrolo[2,3-c]pyridine-2-carboxamide] | 1.2 µg/mL (≈ 3.8 µM) |  |
| O=C(NC1CCCCCCC1)c1cc2c(F)cncc2[nH]1 [MPL-093, N-cyclooctyl-4-fluoro-1H-pyrrolo[2,3-c]pyridine-2-carboxamide] | 1.1 µg/mL (≈ 3.8 µM) |  |
| CC1(C)CCC(NC(=O)c2cc3c(F)cncc3[nH]2)CC1 [MPL-094, N-(4,4-dimethylcyclohexyl)-4-fluoro-1H-pyrrolo[2,3-c]pyridine-2-carboxamide] | 0.049 µg/mL (≈ 0.169 µM) |  |
| C[C@@H]1[C@@H](NC(=O)c2cc3c(C#N)cncc3[nH]2)C[C@H]2C[C@@H]1C2(C)C [MPL-095, 4-cyano-N-[(1S,2S,3S,5R)-2,6,6-trimethylnorpinan-3-yl]-1H-pyrrolo[2,3-c]pyridine-2-carboxamide] | 1.5 µg/mL (≈ 4.65 µM) |  |
| N#Cc1cncc2[nH]c(C(=O)NC3CCCCCCC3)cc12 [MPL-096, 4-cyano-N-cyclooctyl-1H-pyrrolo[2,3-c]pyridine-2-carboxamide] | 0.47 µg/mL (≈ 1.59 µM) |  |
| CC1(C)CCC(NC(=O)c2cc3c(C#N)cncc3[nH]2)CC1 [MPL-097, 4-cyano-N-(4,4-dimethylcyclohexyl)-1H-pyrrolo[2,3-c]pyridine-2-carboxamide] | 0.16 µg/mL (≈ 0.54 µM) |  |
| C[C@@H]1[C@@H](NC(=O)c2cc3c(C(F)(F)F)cncc3[nH]2)C[C@H]2C[C@@H]1C2(C)C [MPL-100, 4-(trifluoromethyl)-N-[(1S,2S,3S,5R)-2,6,6-trimethylnorpinan-3-yl]-1H-pyrrolo[2,3-c]pyridine-2-carboxamide] | 0.24 µg/mL (≈ 0.657 µM) |  |
| CC1(C)C2CCC1(C)C(NC(=O)c1cc3c(F)ccnc3[nH]1)C2 (centres unmarked) [MPL-106, 4-fluoro-N-(1,7,7-trimethylnorbornan-2-yl)-1H-pyrrolo[2,3-b]pyridine-2-carboxamide] | 0.16 µg/mL (≈ 0.507 µM) |  |
| CC1(C)C2CCC1(C)C(NC(=O)c1cc3c(C(F)(F)F)ccnc3[nH]1)C2 (centres unmarked) [MPL-108, 4-(trifluoromethyl)-N-(1,7,7-trimethylnorbornan-2-yl)-1H-pyrrolo[2,3-b]pyridine-2-carboxamide] | 0.02 µg/mL (≈ 0.0547 µM) |  |
| C[Si]1(C)CCC(NC(=O)c2cc3c(F)ccnc3[nH]2)CC1 [MPL-109, N-(1,1-dimethylsilinan-4-yl)-4-fluoro-1H-pyrrolo[2,3-b]pyridine-2-carboxamide] | 0.022 µg/mL (≈ 0.072 µM) |  |
| C[Si]1(C)CCC(NC(=O)c2cc3c(C#N)ccnc3[nH]2)CC1 [MPL-110, 4-cyano-N-(1,1-dimethylsilinan-4-yl)-1H-pyrrolo[2,3-b]pyridine-2-carboxamide] | 0.022 µg/mL (≈ 0.0704 µM) |  |
